Columns and labels:
[1] = Water contact angle and degree of molecular surface coating of carrier; format: physicochemical; settings: single component, Table 6 footnote
Description: Advantageously, the carrier particles and the lubricant particles are mixed until the degree of molecular surface coating is more than 10% as determined by water contact angle measurement. Preferably, carrier particles and lubricant particles made of magnesium stearate are mixed until the water contact angle of the ‘coated’ carrier particles is more than 36° corresponding to more than 10% degree of molecular surface coating; more preferably, the water contact angle should be more than 50° corresponding to more than 23% decree of molecular surface coating.
40.528 kg (99.75% w/w) of α-Lactose monohydrate fraction 90-150 μm and 0.102 kg (0.25% w/w) of magnesium stearate were mixed in a Turbula mixer T 100 at 16 r.p.m. for several hours. At different mixing times samples were withdrawn and tested for uniformity of distribution of magnesium stearate, particle size, water contact angle and degree of molecular surface coating calculated according to lassie et al. (Transactions of the Faraday Society 40; 546, 1944). To validate the process, three batches (40 kg) of the carrier were prepared.

dog = assay: Toxicity studies in dog; format: in vivo
healthy volunteers = assay: Acute tolerance trial in healthy volunteers; format: in vivo, humans; settings: single dose 25.72 mg lactose and 0.065 mg magnesium stearate via Pulvinal inhaler
Description: Furthermore, acute and long term tolerance trials were carried out to evaluate toxicity of magnesium stearate in humans.
In the former, 18 healthy volunteers, included in a double blind randomised controlled cross-over design study, received a single dose containing 25.72 mg of lactose and 0.065 mg of magnesium stearate via Pulvinal® inhaler. The introduction of 0.25% magnesium stearate in powdery pharmaceutical formulation resulted to be safe.

Row | Compound | water contact angle [1] | Safety of the respirable amount (dog) | Safety, acute tolerance (healthy volunteers)
1 | O.OC[C@H]1O[C@@H](O[C@H]2[C@H](O)[C@@H](O)[C@@H](O)O[C@@H]2CO)[C@H](O)[C@@H](O)[C@H]1O [α-Lactose monohydrate] | α-Lactose monohydrate water contact angle 12° | – | –
2 | Magnesium stearate | Magnesium stearate water contact angle 118° | safe | safe

Source: US6528096B1, “Carrier mixed with additives having lubricant properties for preparing powdery pharmaceutical compositions for inhalation” (Chiesi Farmaceutical S.p.A., priority 1999, dated 2003)
